Laboratory results reported in patent US20210070748A1, “INHIBITORS OF BRUTONS TYROSINE KINASE” (Pharmacyclics LLC, priority 2015, published 2021).
Counter-ions that a name gives are not always drawn.

Experiments:
Type in all cases: biochemical
LCK = LCK (Homo sapiens, UniProt P06239); assay: Inhibition of a panel of kinases, in vitro HotSpot kinase assay: LCK; details: Table 10, Formula A-I; 1 μM ATP; read-out: LCK (IC50)
BTK-WT = target: T1, BTK-WT (Homo sapiens, UniProt Q06187); assay: Btk in vitro inhibitory activity (one of Method A TR-FRET, Method B electrophoretic mobility shift, Method C radiometric filter binding); details: Table 10, Formula A-I; read-out: BTK-WT (IC50)
T1 construct: purified from insect cells as a full-length construct containing an N-terminal 6X-His tag; His6 (N); made in house; host or cells: insect cells (baculovirus Sf21 in Method B)
T1 sequence (Q06187 whole entry): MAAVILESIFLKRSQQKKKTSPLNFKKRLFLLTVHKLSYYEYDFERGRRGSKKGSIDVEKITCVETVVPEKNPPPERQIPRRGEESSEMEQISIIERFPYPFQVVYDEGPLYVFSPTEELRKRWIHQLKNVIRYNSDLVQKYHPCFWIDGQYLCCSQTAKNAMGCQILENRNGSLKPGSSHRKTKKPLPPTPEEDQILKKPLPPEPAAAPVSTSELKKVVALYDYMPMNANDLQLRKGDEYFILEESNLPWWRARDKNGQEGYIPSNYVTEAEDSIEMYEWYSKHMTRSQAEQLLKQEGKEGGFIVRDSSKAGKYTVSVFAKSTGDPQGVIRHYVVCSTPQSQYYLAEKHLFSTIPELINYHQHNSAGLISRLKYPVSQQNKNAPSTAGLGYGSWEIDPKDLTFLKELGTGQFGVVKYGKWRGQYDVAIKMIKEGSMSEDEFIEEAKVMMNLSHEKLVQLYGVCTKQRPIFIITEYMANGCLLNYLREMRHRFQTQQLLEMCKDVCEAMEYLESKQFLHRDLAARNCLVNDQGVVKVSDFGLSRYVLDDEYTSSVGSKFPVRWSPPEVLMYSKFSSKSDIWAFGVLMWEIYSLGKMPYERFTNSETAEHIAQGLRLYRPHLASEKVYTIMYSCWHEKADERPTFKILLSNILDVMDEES

JAK3 = target: T2, JAK3 (Homo sapiens, UniProt P52333); assay: Inhibition of a panel of kinases, in vitro HotSpot kinase assay: JAK3; details: Table 10, Formula A-I; 1 μM ATP; read-out: JAK3 (IC50)
T2 sequence (P52333 1-1124): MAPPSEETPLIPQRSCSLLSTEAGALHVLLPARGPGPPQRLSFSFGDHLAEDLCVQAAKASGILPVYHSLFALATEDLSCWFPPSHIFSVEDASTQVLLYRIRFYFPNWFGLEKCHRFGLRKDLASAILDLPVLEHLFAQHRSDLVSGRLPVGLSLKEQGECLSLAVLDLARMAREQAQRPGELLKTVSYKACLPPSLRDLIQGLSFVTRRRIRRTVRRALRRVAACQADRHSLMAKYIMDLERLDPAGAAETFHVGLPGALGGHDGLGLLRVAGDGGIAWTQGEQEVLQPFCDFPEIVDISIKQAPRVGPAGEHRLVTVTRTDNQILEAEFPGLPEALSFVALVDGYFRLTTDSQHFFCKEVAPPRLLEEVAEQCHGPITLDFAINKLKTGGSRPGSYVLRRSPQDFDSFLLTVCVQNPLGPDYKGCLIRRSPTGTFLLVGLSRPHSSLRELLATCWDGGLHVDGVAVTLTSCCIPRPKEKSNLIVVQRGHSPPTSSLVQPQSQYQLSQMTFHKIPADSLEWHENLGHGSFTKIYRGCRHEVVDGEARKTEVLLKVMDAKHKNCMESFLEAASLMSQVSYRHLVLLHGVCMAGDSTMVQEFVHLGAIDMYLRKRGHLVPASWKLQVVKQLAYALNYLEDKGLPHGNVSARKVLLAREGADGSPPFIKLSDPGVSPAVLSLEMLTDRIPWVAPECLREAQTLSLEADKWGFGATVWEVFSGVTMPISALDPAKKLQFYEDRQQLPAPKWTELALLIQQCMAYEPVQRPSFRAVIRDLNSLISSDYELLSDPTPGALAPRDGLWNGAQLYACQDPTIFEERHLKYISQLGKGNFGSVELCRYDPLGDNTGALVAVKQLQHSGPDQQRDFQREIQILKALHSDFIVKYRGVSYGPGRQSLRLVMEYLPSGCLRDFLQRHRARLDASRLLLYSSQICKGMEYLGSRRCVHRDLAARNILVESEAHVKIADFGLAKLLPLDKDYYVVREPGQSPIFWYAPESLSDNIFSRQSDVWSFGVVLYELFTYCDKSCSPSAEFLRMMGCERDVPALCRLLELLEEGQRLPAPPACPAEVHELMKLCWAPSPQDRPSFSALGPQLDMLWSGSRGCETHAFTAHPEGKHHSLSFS

LCK, sequence (P06239 whole entry): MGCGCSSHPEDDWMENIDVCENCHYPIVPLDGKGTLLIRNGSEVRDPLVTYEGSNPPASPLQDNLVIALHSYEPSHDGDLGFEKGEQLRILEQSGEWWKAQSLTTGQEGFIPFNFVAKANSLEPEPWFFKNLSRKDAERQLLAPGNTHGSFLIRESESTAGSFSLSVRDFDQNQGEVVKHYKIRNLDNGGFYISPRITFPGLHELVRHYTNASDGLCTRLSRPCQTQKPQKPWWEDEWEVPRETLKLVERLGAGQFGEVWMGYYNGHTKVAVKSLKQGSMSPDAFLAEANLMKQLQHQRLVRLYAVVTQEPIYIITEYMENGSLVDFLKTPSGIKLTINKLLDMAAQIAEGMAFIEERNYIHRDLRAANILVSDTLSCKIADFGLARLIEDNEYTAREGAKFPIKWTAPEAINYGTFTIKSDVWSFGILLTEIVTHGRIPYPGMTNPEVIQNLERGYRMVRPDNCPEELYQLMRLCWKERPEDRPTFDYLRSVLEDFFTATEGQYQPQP

Row | IC50 (LCK) [nM] | IC50 (BTK-WT) [nM] | IC50 (JAK3) [nM] | SMILES
1 | 100 to 1000 | ≤ 100 | 1000 to 10000 | Cc1cc(Nc2nc(N3CCC[C@@H](NC(=O)NC4CCCCC4)C3)cnc2C(N)=O)sn1 [Example A-13, 5-[(3R)-3-[(cyclohexylcarbamoyl)amino]piperidin-1-yl]-3-[(3-methyl-1,2-thiazol-5-yl)amino]pyrazine-2-carboxamide]
2 | 100 to 1000 | ≤ 100 | 100 to 1000 | Cc1cc(Nc2nc(N3CCC[C@@H](NC(=O)N4Cc5ccccc5C4)C3)cnc2C(N)=O)sn1 [Example A-17, N-[(3R)-1-{5-carbamoyl-6-[(3-methyl-1,2-thiazol-5-yl)amino]pyrazin-2-yl}piperidin-3-yl]-2,3-dihydro-1H-isoindole-2-carboxamide]
3 | > 10000 | ≤ 100 | > 10000 | Cc1cc(Nc2cc(N3CCC[C@@H](NC(=O)N4Cc5ccccc5C4)C3)cnc2C(N)=O)sn1 [Example A-18, N-[(3R)-1-{6-carbamoyl-5-[(3-methyl-1,2-thiazol-5-yl)amino]pyridin-3-yl}piperidin-3-yl]-2,3-dihydro-1H-isoindole-2-carboxamide]
4 | 100 to 1000 | ≤ 100 | 100 to 1000 | Cc1cc(Nc2nc(N3CCC[C@@H](NC(=O)c4ccccc4)C3)cnc2C(N)=O)sn1 [Example A-19, 5-[(3R)-3-benzamidopiperidin-1-yl]-3-[(3-methyl-1,2-thiazol-5-yl)amino]pyrazine-2-carboxamide]
5 | 100 to 1000 | ≤ 100 | > 10000 | Cc1cc(Nc2nc(N3CCC[C@@H](NC(=O)c4ccc(F)cc4)C3)cnc2C(N)=O)sn1 [Example A-20, 5-[(3R)-3-(4-fluorobenzamido)piperidin-1-yl]-3-[(3-methyl-1,2-thiazol-5-yl)amino]pyrazine-2-carboxamide]
6 | > 10000 | ≤ 100 | 100 to 1000 | Cc1cc(Nc2nc(N3CCC[C@@H](NC(=O)c4ccc(N(C)C)cc4)C3)cnc2C(N)=O)sn1 [Example A-21, 5-[(3R)-3-[4-(dimethylamino)benzamido]piperidin-1-yl]-3-[(3-methyl-1,2-thiazol-5-yl)amino]pyrazine-2-carboxamide]
7 | 100 to 1000 | ≤ 100 | 100 to 1000 | Cc1cc(Nc2nc(N3CCC[C@@H](NC(=O)c4cccc(F)c4)C3)cnc2C(N)=O)sn1 [Example A-22, 5-[(3R)-3-(3-fluorobenzamido)piperidin-1-yl]-3-[(3-methyl-1,2-thiazol-5-yl)amino]pyrazine-2-carboxamide]
8 | 100 to 1000 | ≤ 100 | 100 to 1000 | Cc1cc(Nc2nc(N3CCC[C@@H](NC(=O)c4ccccc4F)C3)cnc2C(N)=O)sn1 [Example A-23, 5-[(3R)-3-(2-fluorobenzamido)piperidin-1-yl]-3-[(3-methyl-1,2-thiazol-5-yl)amino]pyrazine-2-carboxamide]
9 | > 10000 | ≤ 100 | > 10000 | Cc1ccc(C(=O)N[C@@H]2CCCN(c3cnc(C(N)=O)c(Nc4cc(C)ns4)n3)C2)c(F)c1 [Example A-24, 5-[(3R)-3-(2-fluoro-4-methylbenzamido)piperidin-1-yl]-3-[(3-methyl-1,2-thiazol-5-yl)amino]pyrazine-2-carboxamide]
10 | 100 to 1000 | ≤ 100 | 100 to 1000 | Cc1cc(Nc2nc(N3CCC[C@@H](NC(=O)c4ccc(N)cc4)C3)cnc2C(N)=O)sn1 [Example A-25, 5-[(3R)-3-(4-aminobenzamido)piperidin-1-yl]-3-[(3-methyl-1,2-thiazol-5-yl)amino]pyrazine-2-carboxamide]
11 | > 10000 | ≤ 100 | 1000 to 10000 | Cc1cc(Nc2nc(N3CCC[C@@H](NC(=O)c4ccc(N5CCCC5)cc4)C3)cnc2C(N)=O)sn1 [Example A-26, 3-[(3-methyl-1,2-thiazol-5-yl)amino]-5-[(3R)-3-[4-(pyrrolidin-1-yl)benzamido]piperidin-1-yl]pyrazine-2-carboxamide]
12 | 100 to 1000 | ≤ 100 | 1000 to 10000 | Cc1cc(Nc2nc(N3CCC[C@@H](NC(=O)c4cccc(N(C)C)c4)C3)cnc2C(N)=O)sn1 [Example A-27, (5-[(3R)-3-[3-(dimethylamino)benzamido]piperidin-1-yl]-3-[(3-methyl-1,2-thiazol-5-yl)amino]pyrazine-2-carboxamide hydrochloride]
13 | 100 to 1000 | ≤ 100 | 1000 to 10000 | Cc1cc(Nc2nc(N3CCC[C@@H](NC(=O)C4CCCCC4)C3)cnc2C(N)=O)sn1 [Example A-28, 5-[(3R)-3-cyclohexaneamidopiperidin-1-yl]-3-[(3-methyl-1,2-thiazol-5-yl)amino]pyrazine-2-carboxamide]
14 | 1000 to 10000 | ≤ 100 | 100 to 1000 | Cc1cc(Nc2nc(N3CCC[C@@H](NC(=O)c4ccncc4)C3)cnc2C(N)=O)sn1 [Example A-29, 3-[(3-methyl-1,2-thiazol-5-yl)amino]-5-[(3R)-3-(pyridine-4-amido)piperidin-1-yl]pyrazine-2-carboxamide]
15 | > 10000 | ≤ 100 | 1000 to 10000 | Cc1cc(Nc2nc(N3CCC[C@@H](NC(=O)c4ccc(C(C)C)cc4)C3)cnc2C(N)=O)sn1 [Example A-30, 3-[(3-methyl-1,2-thiazol-5-yl)amino]-5-[(3R)-3-[4-(propan-2-yl)benzamido]piperidin-1-yl]pyrazine-2-carboxamide]
16 | 100 to 1000 | ≤ 100 | 100 to 1000 | CCn1ccc2cc(C(=O)N[C@@H]3CCCN(c4cnc(C(N)=O)c(Nc5cc(C)ns5)n4)C3)ccc21 [Example A-31, N-[(3R)-1-{5-carbamoyl-6-[(3-methyl-1,2-thiazol-5-yl)amino]pyrazin-2-yl}piperidin-3-yl]-1-ethyl-1H-indole-5-carboxamide]
17 | > 10000 | ≤ 100 | 1000 to 10000 | Cc1cc(Nc2nc(N3CCC[C@@H](NC(=O)c4ccc(C5CC5)cc4)C3)cnc2C(N)=O)sn1 [Example A-32, 5-[(3R)-3-(4-cyclopropylbenzamido)piperidin-1-yl]-3-[(3-methyl-1,2-thiazol-5-yl)amino]pyrazine-2-carboxamide]
18 | 100 to 1000 | ≤ 100 | 1000 to 10000 | Cc1cccc(C(=O)N[C@@H]2CCCN(c3cnc(C(N)=O)c(Nc4cc(C)ns4)n3)C2)c1 [Example A-33, 3-[(3-methyl-1,2-thiazol-5-yl)amino]-5-[(3R)-3-(3-methylbenzamido)piperidin-1-yl]pyrazine-2-carboxamide]
19 | 1000 to 10000 | ≤ 100 | 1000 to 10000 | Cc1cc(Nc2nc(N3CCC[C@@H](NC(=O)c4ccc(N(C)C)nc4)C3)cnc2C(N)=O)sn1 [Example A-34, 5-[(3R)-3-[6-(dimethylamino)pyridine-3-amido]piperidin-1-yl]-3-[(3-methyl-1,2-thiazol-5-yl)amino]pyrazine-2-carboxamide]
20 | > 10000 | ≤ 100 | > 10000 | Cc1cc(Nc2nc(N3CCC[C@@H](NC(=O)c4ccc(F)cc4F)C3)cnc2C(N)=O)sn1 [Example A-36, 5-[(3R)-3-(2,4-difluorobenzamido)piperidin-1-yl]-3-[(3-methyl-1,2-thiazol-5-yl)amino]pyrazine-2-carboxamide]
